Assay results as given in publication PMC12024264, “Frog Skin Peptides Hylin-a1, AR-23, and RV-23: Promising Tools Against Carbapenem-Resistant Escherichia coli and Klebsiella pneumoniae Infections” (Antibiotics, 2025).
Where no end group is shown, it is not given here.

Experiments:
[1] = tested on: HaCaT cells; test: MTT cytotoxicity assay on HaCaT keratinocytes; format: cell-based, human
Method: To evaluate their safety profile, cytotoxicity assays were performed on HaCaT keratinocytes. Cells were exposed for 20 h to peptides at doses ranging from 0.39 to 100 μM.
Figure 1 Dose–response curves for the AMPs against HaCaT cell line and CC50 (reported in μM), HillSlope, and R^2 values were obtained by the fitting of the curves. The viability effect of Hylin-a1, AR-23, and RV-23 was analyzed on HaCaT cells. The cell monolayer was treated with serial dilutions of peptides for 20 h. Untreated cells were used as a positive control, while dimethyl sulfoxide (DMSO) was used as a negative control. HillSlope: The measure of the steepness of the dose–response curve. […] R^2 (coefficient of determination) indicates how well the model fits the data. Ranges from 0 to 1, with 1 representing a perfect fit.
The cytotoxic effect of peptides was examined using 3-(4,5 dimethylthiazol-2-yl)-2,5-diphenyltetrazolium bromide (MTT), as previously described. Cell viability, expressed as a percentage, was calculated in relation to the viability of untreated cells (+). DMSO was used as negative control (−). The human keratinocyte cell line HaCaT (Cell Lines Service, CLS-, Eppelheim, Germany) was used as a cellular model to evaluate the peptides’ cytotoxicity. HaCaT cells were grown in Dulbecco’s Modified Eagle Medium (DMEM) with 4.5 g/L of glucose (Microtech, Naples, Italy) supplemented with an antibiotic solution 100× (Himedia, Naples, Italy) and 10% Fetal Bovine Serum (FBS, Microtech).

[2] = Serum stability assay; format: in vitro ADME, bovine; details: 10% FBS
Method: The susceptibility of Hylin-a1, AR-23, and RV-23 to proteolytic degradation in serum was evaluated, following the protocol reported in Section 4.3.
Figure 6 AMP stability in serum. Stability profiles of Hylin-a1 (red line), AR-23 (gray line), and RV-23 (black line) are reported. All stability tests were performed at least in triplicate. LC-MS analyses were performed using an Agilent 1260 Infinity II LC/MSD system (Milan, Italy). The percentages of intact peptides after different time points of incubation in serum were determined by integrating RP-HPLC peaks from the chromatograms recorded at a wavelength of 210 nm. The test was performed in triplicate, and the data are presented as mean values, with error bars representing standard deviations.
Peptides were mixed with 10% FBS at a final concentration of 0.2 mg/mL and incubated in a water bath at 37 °C. […] Then, the mixture was diluted with 0.1% TFA in H2O (1:1). Samples were characterized using LC-MS on a C18 Aeris Peptide column (100 × 2.1 mm), applying a linear gradient from 5 to 80% solvent B (0.1% TFA in CH3CN) over solvent A (0.1% TFA in water) in 15 min at a flow rate of 0.2 mL/min. All stability tests were performed at least in triplicate. LC-MS analyses were performed using an Agilent 1260 Infinity II LC/MSD system (Milan, Italy).

[3] = tested on: E. coli 716; details: carbapenemases IMP1, VIM, NDM (class B), urine, N/D = no antibacterial activity detected
Method: (§1) Each strain was grown in Mueller Hinton Broth (MH Broth), and 5 × 10^5 CFU/mL was used to evaluate antibacterial activity. Clinical carbapenem-resistant K. pneumoniae and E. coli isolates were collected at the AOU of Virology and Microbiology of the University of Campania “Luigi Vanvitelli”.
(§2) The antimicrobial activity of Hylin-a1, AR-23, and RV-23 was investigated using a microdilution assay as reported by the National Committee on Clinical Laboratory Standards (NCCLS) guidelines against a broad spectrum of Gram-negative bacteria. […] In 96-well, the standardized bacterial inoculum (5 × 10^5 colony forming units, CFU/mL) was inoculated together with AMPs and incubated at 37 °C for 20 h. After the time of incubation, optical density (OD) was measured at TECAN, and data were expressed as a percentage of inhibition. In addition to assessing the MIC values, the bactericidal effect was also studied as reported elsewhere.

[4] = tested on: K. pneumoniae 1711; details: carbapenemase KPC (class A), rectal swab; microdilution, 37 °C, 20 h; N/D = no antibacterial activity detected
Method: as §1, §2

[5] = tested on: E. coli 1441; details: carbapenemase KPC (class A), rectal swab; microdilution, 37 °C, 20 h; N/D = no antibacterial activity detected
Method: as §1, §2

[6] = tested on: K. pneumoniae 1745; details: carbapenemase KPC (class A), ulcer; microdilution, 37 °C, 20 h; N/D = no antibacterial activity detected
Method: as §1, §2

[7] = tested on: E. coli 3140; details: carbapenemase OXA-48 (class D), urine; microdilution, 37 °C, 20 h; N/D = no antibacterial activity detected
Method: as §1, §2

[8] = tested on: E. coli 2267; details: carbapenemase NDM (class B), rectal swab; microdilution, 37 °C, 20 h; N/D = no antibacterial activity detected
Method: as §1, §2

[9] = tested on: K. pneumoniae 1746; details: carbapenemase VIM (class B), rectal swab; microdilution, 37 °C, 20 h; N/D = no antibacterial activity detected
Method: as §1, §2

[10] = tested on: E. coli 1376; details: carbapenemase NDM (class B), rectal swab, N/D = no antibacterial activity detected
Method: as §1, §2

[11] = tested on: K. pneumoniae ATCC 10031
Method: (§3) The three peptides were tested for their antibacterial activity. […] As described in the Materials and Methods section, the antibacterial effect of peptides was investigated using a microdilution assay. Each concentration of AMPs was inoculated with bacteria in 96-well plates and incubated at 37 °C for 20 h. After that, MIC values were determined by analyzing absorbance and expressed as a percentage of inhibition. MBC was assessed by observing the colonies’ growth on agar plates, as described elsewhere.
as §1, §2

[12] = tested on: E. coli ATCC 25992; details: microdilution (NCCLS), MH broth, 5 × 10^5 CFU/mL, 37 °C, 20 h, absorbance; 50 to 1.56 μM
Method: as §3, §1, §2

AIGSILGALAKGLPTLISWIKNR-NH2 [AR-23]
50% cytotoxic concentration (CC50) ([1]; HaCaT keratinocytes, 20 h exposure, 0.39 to 100 μM): 50 µM | CC50 obtained by the fitting of the curves ([1]; HaCaT, 20 h, Figure 1): 52.25 µM | percentage of intact fragments, almost constant up to 24 h ([2]; 0.2 mg/mL, 37 °C, RP-HPLC peaks at 210 nm, mean of triplicate, after the first 2 h up to 24 h): around 30% | half-life ([2]; serum, peptide 0.2 mg/mL, 37 °C water bath, ethanol precipitation, LC-MS, RP-HPLC peak integration at 210 nm, at least triplicate): < 2 h | MBC [3]: 50 µM | MIC ([3]; microdilution, 37 °C, 20 h): 25 µM | MIC [4]: 50 µM | MIC [5]: 25 µM | MIC [6]: 50 µM | MIC [7]: 50 µM | MIC [8]: 25 µM | MIC [9]: 25 µM | MBC [10]: 50 µM | MIC ([10]; microdilution, 37 °C, 20 h): 25 µM | MBC ([11]; colonies' growth on agar plates after microdilution, N/D = not detected antibacterial activity): 25 µM | MIC ([11]; microdilution (NCCLS), MH broth, 5 × 10^5 CFU/mL, 37 °C, 20 h, absorbance, 50 to 1.56 μM): 6.25 µM | MIC [12]: 25 µM
